# Several values for one entry are separate records, joined by “and”; a condition that tells them apart may be missing. Equal values may be shown once.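 Where inhibition never reached the appropriate level, the endpoint shown equals the highest concentration tested. Otherwise, values were interpolated linearly from a five-concentration, 48-hour dose response in 96-well plates. GI50 is the concentration that inhibits growth by half. The concentration for full growth arrest is given as TGI.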
# Tests used:
# Assay in all cases: NCI-60 cell line screen, 48 h
# SW-620 colon = system: SW-620 colon
# SK-MEL-28 melanoma = system: SK-MEL-28 melanoma
# SN12C renal = system: SN12C renal
# HT29 colon = system: HT29 colon
# OVCAR-8 ovarian = system: OVCAR-8 ovarian
# CCRF-CEM leukemia = system: CCRF-CEM leukemia
# HOP-62 NSCLC = system: HOP-62 NSCLC
# MDA-MB-435 = system: MDA-MB-435
# DU-145 prostate = system: DU-145 prostate
# ACHN renal = system: ACHN renal
SMILES,GI50 (SW-620 colon),TGI (SW-620 colon),GI50 (SK-MEL-28 melanoma),TGI (SK-MEL-28 melanoma),GI50 (SN12C renal),TGI (SN12C renal),GI50 (HT29 colon),TGI (HT29 colon),GI50 (OVCAR-8 ovarian),TGI (OVCAR-8 ovarian),GI50 (CCRF-CEM leukemia),TGI (CCRF-CEM leukemia),GI50 (HOP-62 NSCLC),TGI (HOP-62 NSCLC),GI50 (MDA-MB-435),TGI (MDA-MB-435),GI50 (DU-145 prostate),TGI (DU-145 prostate),TGI (ACHN renal),GI50 (ACHN renal)
COc1ccc(C2C(c3ccccc3)C(=O)N2c2cc(OC)c(OC)c(OC)c2)cc1I (stereo unspecified),0.423 µM,> 100 µM,2.31 µM,> 100 µM,0.523 µM,> 100 µM,0.344 µM,90.1 µM,0.407 µM,> 100 µM,0.365 µM,> 100 µM,0.57 µM,> 100 µM,0.209 µM,0.644 µM,0.332 µM,75.4 µM,–,–
COc1ccc2[nH]c(-c3cccc(N(C)C)c3)cc(=O)c2c1,0.303 µM,> 100 µM,0.795 µM,> 100 µM,0.654 µM,> 100 µM,0.345 µM,1.46 µM and 3.21 µM,0.433 µM,2.48 µM and 5.56 µM,–,0.907 µM,0.335 µM and 0.844 µM,94.2 µM,0.0444 µM,0.213 µM and 0.202 µM,0.589 µM,–,> 100 µM,–
O=C(O)c1ccc(S(=O)(=O)N=Nc2c(O)[nH]c3ccccc23)cc1,–,> 100 µM,–,> 100 µM,–,> 100 µM,–,> 100 µM,–,> 100 µM,–,> 100 µM,–,> 100 µM,–,> 100 µM,–,> 100 µM,> 100 µM,–
Cc1ccc2[nH]c(C(=O)NN3C(=O)CSC34CCCC(C)C4)c(-c3ccccc3)c2c1 (stereo unspecified),25.6 µM,67.1 µM,19.7 µM,37.6 µM,16.6 µM,32.2 µM,13.8 µM,29.4 µM,15.6 µM,32.9 µM,10.8 µM,31.8 µM,19.2 µM,35.1 µM,18 µM,34.8 µM,18.7 µM,42.4 µM,36.1 µM,18.3 µM
Cc1ccccc1-n1c(/C=C\c2ccccn2)nc2ccccc2c1=O,13.2 µM,56.2 µM,18.4 µM,39.8 µM,21.2 µM,> 100 µM,19.7 µM,> 100 µM,21.4 µM,> 100 µM,4.24 µM,30.1 µM,47.4 µM,> 100 µM,8.23 µM,53 µM,3.4 µM,11.3 µM,> 100 µM,12.8 µM
COc1cccc2c1cc([N+](=O)[O-])c1c(C(=O)O)cc3c(c12)OCO3,28.2 µM,> 100 µM,46.7 µM,> 100 µM,48.7 µM,> 100 µM,0.352 µM,2.42 µM and 10.4 µM,–,> 100 µM,28.2 µM,> 100 µM,28.4 µM,97.8 µM and > 76.6 µM,41.5 µM,> 100 µM,23 µM,> 82.1 µM and 98.7 µM,> 100 µM,35.2 µM
COC(=O)c1c2c(c(C)[n+]([O-])c1C)C(=O)C(NCc1cccc(OC)c1)=CC2=O,2.65 µM,8.96 µM,4.6 µM,18.2 µM,1.97 µM,4.94 µM,2.51 µM,> 100 µM,2.52 µM,10.3 µM,3.09 µM,17.1 µM,3.07 µM,25.3 µM,1.67 µM,3.05 µM,3.43 µM,12 µM,10.2 µM,2.84 µM
CCCCCCNC(=O)Oc1ccc(/C(=C(\C)c2ccccc2)c2ccc(OCCN3CCCCC3)cc2)cc1,2.16 µM,5.66 µM,2.06 µM,4.41 µM,1.7 µM,3.4 µM,1.38 µM,3.89 µM,2.14 µM,5.94 µM,3.05 µM,17.2 µM,3.22 µM,10.9 µM,1.84 µM,4.01 µM,3.69 µM,15.3 µM,10.9 µM,2.85 µM
COc1ccc(NC(=O)c2sc3nc(C)c(C(O)c4ccc(OC)cc4)cc3c2N)cc1 (stereo unspecified),1.26 µM,> 50 µM,6.22 µM,> 50 µM,2.25 µM,> 50 µM,1.45 µM,19.4 µM,1.79 µM,> 50 µM,1.44 µM,> 50 µM,2.03 µM,> 50 µM,0.121 µM,0.387 µM,1.65 µM,> 50 µM,> 50 µM,2.51 µM
COc1ccc(/C(Cl)=C(\C=O)c2ccc(OC)c(OC)c2)cc1OC,–,> 100 µM,–,> 100 µM,–,> 100 µM,–,> 67.9 µM,–,> 100 µM,–,> 100 µM,–,> 100 µM,–,> 100 µM,–,> 100 µM,> 100 µM,–
C[C@@]1(c2ncncc2F)NC(=O)c2cc(-c3cn[nH]c3)ccc21,6.79 µM,> 100 µM,11.7 µM,73.4 µM,26.5 µM,> 100 µM,7.46 µM,90.9 µM,26.9 µM,> 100 µM,42.3 µM,> 100 µM,18.7 µM,> 100 µM,19.9 µM,> 100 µM,28.8 µM,> 100 µM,–,–
COc1cc(-c2nn(C(=O)NS(=O)(=O)c3ccc(C)cc3)cc2-c2ccncc2)ccc1Cl,20.4 µM,> 100 µM,3.51 µM,13.1 µM,3.02 µM,24.1 µM,2.89 µM,17.6 µM,2.02 µM,93.6 µM,14.1 µM,> 100 µM,2.9 µM,10.8 µM,5.6 µM,25.3 µM,6.88 µM,75.7 µM,36.1 µM,3.48 µM
CN(C)CCOc1nc2c3cccnc3cc(-c3cccc(Cl)c3)c2c2ncccc12,0.684 µM,2.19 µM,1.65 µM,3.07 µM,1.51 µM,7.03 µM,1.01 µM,2.27 µM,–,–,1.26 µM,6.73 µM,1.43 µM,3.26 µM,1.5 µM,2.93 µM,1.84 µM,4.26 µM,2.45 µM,0.698 µM
CS(=O)c1ccc(-c2nc(-c3ccc(F)cc3)c(-c3ccncc3)[nH]2)cc1 (stereo unspecified),30 µM,> 75 µM,17.1 µM,66.3 µM,41.9 µM,> 100 µM,10.7 µM,> 89.4 µM,29.6 µM,> 100 µM,27.3 µM,> 100 µM,> 100 µM,> 100 µM,20.7 µM,> 100 µM,31.7 µM,> 100 µM,> 100 µM,21.4 µM
O=[N+]([O-])c1cc(Cl)cc2c1nc(NCCO)c1ccccc12,–,> 100 µM,–,> 100 µM,–,> 100 µM,–,> 43 µM,–,> 100 µM,–,> 100 µM,–,> 100 µM,–,> 100 µM,–,15.9 µM,> 100 µM,–
CS(=O)(=O)OCCN(CCOS(C)(=O)=O)c1ccc(C=Nc2ccc3oc(=O)ccc3c2)cc1,–,> 83.1 µM,–,64.4 µM,–,> 70.5 µM,–,53.6 µM,–,49.9 µM,–,31.8 µM,–,34.1 µM,–,26.1 µM,–,35.9 µM,4.91 µM,–
CC(F)(F)c1cc(F)ccc1-c1sc2cc(O)ccc2c1Oc1ccc(/C=C/C(=O)O)cc1,8.56 µM,24.9 µM,5.79 µM,18.9 µM,14 µM,46 µM,11.8 µM,36.1 µM,12.2 µM,69.1 µM,6.68 µM,94.4 µM,9.03 µM,26.8 µM,2.23 µM,5.51 µM,12.7 µM,28.5 µM,45.5 µM,10.3 µM
Oc1ccc(/C=N/Nc2nc3ccccc3s2)c(O)c1,3.47 µM,> 100 µM,2.99 µM,> 100 µM,2.09 µM,57.9 µM,3.61 µM,13.6 µM,1.65 µM,> 100 µM,0.717 µM,> 100 µM,3.43 µM,> 100 µM,3.08 µM,> 100 µM,1.86 µM,17.6 µM,9.89 µM,1.11 µM
COc1cc(/C=C2\CC3C4CC=C5C[C@@H](N6CCCC6)CC[C@]5(C)C4CC[C@]3(C)[C@H]2OC(C)=O)ccc1OCCN1CCCCC1 (stereo partly specified),0.777 µM,2.09 µM,2.31 µM,4.8 µM,0.775 µM,2.56 µM,1.55 µM,> 100 µM,1.8 µM,3.42 µM,0.0346 µM,0.777 µM,1.49 µM,2.87 µM,1.83 µM,3.44 µM,1.57 µM,3.67 µM,3.73 µM,1.91 µM
O=C(Nc1cccc2cccnc12)c1ccc(N2C(=O)[C@@H]3[C@H](C2=O)[C@@H]2C=C[C@H]3C2)cc1,42 µM,> 100 µM,35.2 µM,> 100 µM,28.7 µM,> 100 µM,18 µM,62.4 µM,26 µM,> 100 µM,30.1 µM,> 100 µM,36.7 µM,> 100 µM,32.1 µM,> 100 µM,29.9 µM,> 100 µM,> 100 µM,36.4 µM
CCCCN(CCCC)CC(C)(C)C(O)c1ccc(OC)c2ccccc12 (stereo unspecified),2.54 µM,14.5 µM,11.3 µM,24.8 µM,4.54 µM,20.6 µM,0.875 µM,13.4 µM,9.76 µM,28.8 µM,5.13 µM,26.7 µM,6.5 µM,20.6 µM,5.05 µM,28.6 µM,10.2 µM,52.3 µM,16 µM,3.96 µM
COc1cc(-c2nc(SCC(=O)Nc3ccc(C(C)=O)cc3)[nH]c(=O)c2C#N)cc(OC)c1OC,46.7 µM,> 100 µM,47.5 µM,> 100 µM,70.2 µM,> 100 µM,55.7 µM,> 100 µM,73.7 µM,> 100 µM,31.6 µM,> 100 µM,79.3 µM,> 100 µM,24.4 µM,87.6 µM,62.6 µM,> 100 µM,> 100 µM,85 µM
CC(C)c1cc(CNc2nc(Nc3cc(C4CC4)[nH]n3)cc(N3CCN(C)CC3)n2)on1,–,> 10 µM and 10.8 µM,–,> 10 µM and 4.59 µM,–,> 10 µM and 15.1 µM,–,–,3.27 µM and 0.42 µM,> 10 µM and 14.8 µM,4.62 µM and 1.02 µM,> 100 µM,–,–,–,> 10 µM and 5.54 µM,1.57 µM and 0.205 µM,–,> 10 µM and 6.66 µM,–
COc1ccc(OC)c(-c2cc(-c3ccccc3)nn2-c2ccc(S(N)(=O)=O)cc2)c1,12.7 µM,33.4 µM,–,–,12.5 µM,25 µM,–,–,10.2 µM,27 µM,4.17 µM,> 100 µM,–,–,6.73 µM,24.8 µM,15.6 µM,29.5 µM,19.7 µM,8.01 µM
BrC(Br)(Br)c1cnc2ccccc2n1,–,–,1.85 µM,4.24 µM,3.71 µM,14.1 µM,1.06 µM,2.67 µM,1.76 µM,4.07 µM,0.49 µM,2.42 µM,2.27 µM,7.9 µM,2.14 µM,6.29 µM,2.21 µM,7.14 µM,2.84 µM,1.41 µM
CC(C)=CCC/C(C)=C/CC/C(=C/COP(=O)(OCc1ccc([N+](=O)[O-])o1)N(C)CCCCCl)CC=C(C)C (stereo unspecified),2.92 µM,6.98 µM,19.6 µM,43 µM,2.98 µM,12.3 µM,4.56 µM,33.6 µM,3.04 µM,13.5 µM,6.16 µM,> 100 µM,–,–,4.98 µM,23.7 µM,1.94 µM,18.6 µM,–,–
O=C1/C(=C/c2ccc([N+](=O)[O-])s2)Oc2ccccc21,0.257 µM,0.725 µM,1.25 µM,2.65 µM,1.23 µM,3.04 µM,0.771 µM,4.67 µM,0.297 µM,1.68 µM,0.282 µM,0.874 µM,–,–,1.3 µM,3.17 µM,2.43 µM,5.56 µM,1.77 µM,0.568 µM

# Source: PubChem BioAssay (NCI)
